Measurements reported in ChEMBL document CHEMBL1201862, “PubChem BioAssay data set” (2004).
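Each compound was tested at five concentrations against cells in 96-well plates for 48 hours. GI50 marks 50% less growth.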 The source made the active and inactive calls. No stated cut-off is given here; in the data, active = GI50 up to about 1.1 µM and inactive = higher.

Tests used:
Test in all cases: NCI-60 cell line screen, 48 h
OVCAR-3 = system: OVCAR-3
SF-539 = system: SF-539
CAKI-1 = system: CAKI-1
SR = system: SR
A549 = system: A549
RPMI-8226 = system: RPMI-8226
HOP-18 = system: HOP-18
LXFL 529 = system: LXFL 529
HOP-62 = system: HOP-62
RXF 393 = system: RXF 393
Malme-3M = system: Malme-3M
LOX IMVI = system: LOX IMVI
NCI-H522 = system: NCI-H522
SW-620 = system: SW-620
SF-268 = system: SF-268
M14 = system: M14
SNB-75 = system: SNB-75
DMS-273 = system: DMS-273
SN12C = system: SN12C
SK-MEL-2 = system: SK-MEL-2
NCI-H226 = system: NCI-H226
RXF 631 = system: RXF 631
CCRF-CEM = system: CCRF-CEM
UO-31 = system: UO-31
ACHN = system: ACHN
HCC 2998 = system: HCC 2998
SK-OV-3 = system: SK-OV-3
HL-60 = system: HL-60
KM-20L2 = system: KM-20L2
OVCAR-4 = system: OVCAR-4
UACC-62 = system: UACC-62
KM12 = system: KM12
DMS-114 = system: DMS-114
K562 = system: K562
OVCAR-8 = system: OVCAR-8
NCI-H460 = system: NCI-H460
786-0 = system: 786-0
DLD-1 = system: DLD-1
UACC-257 = system: UACC-257
MOLT-4 = system: MOLT-4
OVCAR-5 = system: OVCAR-5
HCT-15 = system: HCT-15
SNB-19 = system: SNB-19
IGROV-1 = system: IGROV-1
NCI-H23 = system: NCI-H23
SK-MEL-5 = system: SK-MEL-5
U-251 = system: U-251
COLO 205 = system: COLO 205
HOP-92 = system: HOP-92
SK-MEL-28 = system: SK-MEL-28
TK-10 = system: TK-10
HT-29 = system: HT-29
HCT-116 = system: HCT-116
M19-MEL = system: M19-MEL
SNB-78 = system: SNB-78
A498 = system: A498
SF-295 = system: SF-295
EKVX = system: EKVX
XF498 = system: XF498

CC#N.O[C@@H]1CCCC[C@H]1O.O[C@@H]1CCCC[C@H]1O.[TeH2]
GI50 (OVCAR-3): 19.1 µM (inactive)
GI50 (SF-539): > 100 µM (inactive)
GI50 (CAKI-1): > 100 µM (inactive)
GI50 (SR): 24.8 µM (inactive)
GI50 (A549): 41.5 µM (inactive)
GI50 (RPMI-8226): 26.7 µM (inactive)
GI50 (HOP-18): 23.3 µM (inactive)
GI50 (LXFL 529): 37.7 µM (inactive)
GI50 (HOP-62): 53.5 µM (inactive)
GI50 (RXF 393): > 100 µM (inactive)
GI50 (Malme-3M): > 100 µM (inactive)
GI50 (LOX IMVI): 9.57 µM (inactive)
GI50 (NCI-H522): 37.2 µM (inactive)
GI50 (SW-620): 16.7 µM (inactive)
GI50 (SF-268): > 100 µM (inactive)
GI50 (M14): > 100 µM (inactive)
GI50 (SNB-75): > 100 µM (inactive)
GI50 (DMS-273): 18.1 µM (inactive)
GI50 (SN12C): 29.1 µM (inactive)
GI50 (SK-MEL-2): > 100 µM (inactive)
GI50 (NCI-H226): 46.1 µM (inactive)
GI50 (RXF 631): 22.8 µM (inactive)
GI50 (CCRF-CEM): 20.2 µM (inactive)
GI50 (UO-31): 47 µM (inactive)
GI50 (ACHN): 46.3 µM (inactive)
GI50 (HCC 2998): > 100 µM (inactive)
GI50 (SK-OV-3): > 100 µM (inactive)
GI50 (HL-60): 14.6 µM (inactive)
GI50 (KM-20L2): 69.7 µM (inactive)
GI50 (OVCAR-4): 61.8 µM (inactive)
GI50 (UACC-62): 82.2 µM (inactive)
GI50 (KM12): 42.7 µM (inactive)
GI50 (DMS-114): 44.7 µM (inactive)
GI50 (K562): 25.8 µM (inactive)
GI50 (OVCAR-8): 19 µM (inactive)
GI50 (NCI-H460): 2.99 µM (inactive)
GI50 (786-0): 48.8 µM (inactive)
GI50 (DLD-1): 32.2 µM (inactive)
GI50 (UACC-257): > 100 µM (inactive)
GI50 (MOLT-4): 27.4 µM (inactive)
GI50 (OVCAR-5): 23.8 µM (inactive)
GI50 (HCT-15): 18.1 µM
GI50 (SNB-19): 39.8 µM (inactive)
GI50 (IGROV-1): 41.6 µM (inactive)
GI50 (NCI-H23): 20.8 µM (inactive)
GI50 (SK-MEL-5): 33.3 µM (inactive)
GI50 (U-251): 13.9 µM (inactive)
GI50 (COLO 205): > 100 µM (inactive)
GI50 (HOP-92): 26.2 µM (inactive)
GI50 (SK-MEL-28): > 100 µM (inactive)
GI50 (TK-10): > 100 µM (inactive)
GI50 (HT-29): 28.2 µM (inactive)
GI50 (HCT-116): 13.4 µM (inactive)
GI50 (M19-MEL): 21.5 µM (inactive)
GI50 (SNB-78): > 100 µM (inactive)
GI50 (A498): > 100 µM (inactive)
GI50 (SF-295): 18.6 µM (inactive)

COc1cc(C)c2c(c1C)OC(=O)c1c(C)c(Cl)c(O)c(C=O)c1O2
GI50 (OVCAR-3): 1.63 µM (inactive)
GI50 (SF-539): 12.2 µM (inactive)
GI50 (CAKI-1): 52.2 µM (inactive)
GI50 (SR): 14.3 µM (inactive)
GI50 (EKVX): 10.3 µM (inactive)
GI50 (A549): 12.8 µM (inactive)
GI50 (RPMI-8226): 14 µM (inactive)
GI50 (LXFL 529): 13.9 µM (inactive)
GI50 (HOP-62): 20.3 µM (inactive)
GI50 (Malme-3M): 15.5 µM (inactive)
GI50 (LOX IMVI): 16 µM (inactive)
GI50 (SW-620): 31.8 µM (inactive)
GI50 (XF498): 12.3 µM (inactive)
GI50 (SF-268): 9.66 µM (inactive)
GI50 (M14): 18.4 µM (inactive)
GI50 (SNB-75): 14.3 µM (inactive)
GI50 (DMS-273): 14.9 µM (inactive)
GI50 (SN12C): 21.8 µM (inactive)
GI50 (NCI-H226): 23.2 µM (inactive)
GI50 (RXF 631): 15.5 µM (inactive)
GI50 (CCRF-CEM): 9.18 µM (inactive)
GI50 (UO-31): 11.2 µM (inactive)
GI50 (ACHN): 14.7 µM (inactive)
GI50 (HCC 2998): 19.5 µM (inactive)
GI50 (SK-OV-3): 23.4 µM (inactive)
GI50 (HL-60): 9.02 µM (inactive)
GI50 (KM-20L2): 22.6 µM (inactive)
GI50 (UACC-62): 15.7 µM (inactive)
GI50 (KM12): 15.4 µM (inactive)
GI50 (K562): 18.5 µM (inactive)
GI50 (OVCAR-8): 10.2 µM (inactive)
GI50 (NCI-H460): 17.4 µM (inactive)
GI50 (786-0): 10.4 µM (inactive)
GI50 (DLD-1): 11.6 µM (inactive)
GI50 (UACC-257): 20 µM (inactive)
GI50 (MOLT-4): 9.79 µM (inactive)
GI50 (OVCAR-5): 27.7 µM (inactive)
GI50 (SNB-19): 19.1 µM (inactive)
GI50 (IGROV-1): 24.2 µM (inactive)
GI50 (NCI-H23): 14.7 µM (inactive)
GI50 (SK-MEL-5): 60.1 µM (inactive)
GI50 (U-251): 6.41 µM (inactive)
GI50 (COLO 205): 29.2 µM (inactive)
GI50 (TK-10): 29 µM (inactive)
GI50 (HT-29): 20.4 µM (inactive)
GI50 (HCT-116): 20.8 µM (inactive)
GI50 (SNB-78): 13.2 µM (inactive)
GI50 (A498): 13.9 µM (inactive)
GI50 (SF-295): > 10 µM (inactive)
